Source: ChEMBL document CHEMBL1201862, “PubChem BioAssay data set” (2004)
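Assay format: 96-well plates, 48-hour exposure. At the GI50, growth is halved.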 Active and inactive are the calls of the source. Rule as the data show it: active = GI50 up to about 1.1 µM and inactive = higher.

Experiments:
Test in all cases: NCI-60 cell line screen, 48 h
HOP-92 = tested on: HOP-92
TK-10 = tested on: TK-10
SF-539 = tested on: SF-539
KM12 = tested on: KM12
SR = tested on: SR
UACC-257 = tested on: UACC-257
786-0 = tested on: 786-0
HL-60 = tested on: HL-60
LOX IMVI = tested on: LOX IMVI
IGROV-1 = tested on: IGROV-1
MDA-MB-435 = tested on: MDA-MB-435
A498 = tested on: A498
SW-620 = tested on: SW-620
U-251 = tested on: U-251
HCT-15 = tested on: HCT-15
HOP-62 = tested on: HOP-62
SNB-75 = tested on: SNB-75
MOLT-4 = tested on: MOLT-4
MDA-MB-231 = tested on: MDA-MB-231
HCT-116 = tested on: HCT-116

| SMILES | GI50 (HOP-92) | GI50 (TK-10) | GI50 (SF-539) | GI50 (KM12) | GI50 (SR) | GI50 (UACC-257) | GI50 (786-0) | GI50 (HL-60) | GI50 (LOX IMVI) | GI50 (IGROV-1) | GI50 (MDA-MB-435) | GI50 (A498) | GI50 (SW-620) | GI50 (U-251) | GI50 (HCT-15) | GI50 (HOP-62) | GI50 (SNB-75) | GI50 (MOLT-4) | GI50 (MDA-MB-231) | GI50 (HCT-116) |
| --- | --- | --- | --- | --- | --- | --- | --- | --- | --- | --- | --- | --- | --- | --- | --- | --- | --- | --- | --- | --- |
| CCNC(=O)c1c(O)nc2ccccc2c1O | 75.3 µM (inactive) | 50.6 µM (inactive) | > 100 µM (inactive) | 97.7 µM (inactive) | 25.5 µM (inactive) | > 100 µM (inactive) | 67.3 µM (inactive) | 35.6 µM (inactive) | 51.5 µM (inactive) | 39.4 µM (inactive) | 59.7 µM (inactive) | > 100 µM (inactive) | 43.1 µM (inactive) | 29.5 µM (inactive) | 29 µM | 64.9 µM (inactive) | > 100 µM (inactive) | 42 µM (inactive) | 67.5 µM (inactive) | 51.1 µM (inactive) |
| O=C(/C=C/c1ccccc1)CSc1nc2ccc(I)cc2c(=O)n1Cc1ccccc1 | 5.55 µM (inactive) | 28.8 µM (inactive) | 39.9 µM (inactive) | 14.5 µM (inactive) | 8.81 µM (inactive) | 19.4 µM (inactive) | 14.5 µM (inactive) | 17.1 µM (inactive) | 37 µM (inactive) | 7.26 µM (inactive) | 38.9 µM (inactive) | 14.3 µM (inactive) | 38.6 µM (inactive) | 26.5 µM (inactive) | 19.5 µM | 14.3 µM (inactive) | 29.8 µM (inactive) | 9.82 µM (inactive) | 28.9 µM (inactive) | 19.8 µM (inactive) |
| Cc1cccc(/C=N\NC(=S)N2CCCCC2)n1 | 0.474 µM (active) | 0.0156 µM (active) | 0.156 µM (active) | 0.13 µM (active) | 0.019 µM (active) | < 0.01 µM (active) | 0.027 µM (active) | 0.0112 µM (active) | 0.0681 µM (active) | < 0.01 µM (active) | 0.56 µM (active) | 0.0241 µM (active) | 0.334 µM (active) | < 0.01 µM (active) | 0.0371 µM | 0.0776 µM (active) | 0.611 µM (active) | < 0.01 µM (active) | < 0.01 µM (active) | < 0.01 µM (active) |
| COC(=O)N/N=C(/CC1(O)C(=O)Nc2ccc([N+](=O)[O-])cc21)c1ccccc1 (stereo not given) | 33 µM (inactive) | 24.9 µM (inactive) | 38 µM (inactive) | 34.4 µM (inactive) | 29.9 µM (inactive) | 42.4 µM (inactive) | 25.4 µM (inactive) | 35 µM (inactive) | 18.9 µM (inactive) | > 46.7 µM (inactive) | 20.8 µM (inactive) | 14 µM (inactive) | 37.8 µM (inactive) | 29.9 µM (inactive) | > 51.2 µM | 31 µM (inactive) | 23.9 µM (inactive) | 24.5 µM (inactive) | 18.3 µM (inactive) | 24.1 µM (inactive) |
| COC12COC(=O)C1C(c1ccc3c(c1)OCO3)c1cc3c(cc1O2)OCO3 (stereo not given) | 37.8 µM (inactive) | 29.2 µM (inactive) | 10.7 µM (inactive) | 7.91 µM (inactive) | 5.38 µM (inactive) | 27.9 µM (inactive) | 25.1 µM (inactive) | 5.28 µM (inactive) | 12.8 µM (inactive) | 20.8 µM (inactive) | 2.72 µM (inactive) | 29.2 µM (inactive) | 8.49 µM (inactive) | 32 µM (inactive) | 7.08 µM | 16 µM (inactive) | 7.71 µM (inactive) | 7.11 µM (inactive) | 25.4 µM (inactive) | 11.1 µM (inactive) |
| CC(C)(C)[Si](C)(C)OCC1OC(n2cnc3c(NC(=O)c4ccccc4)ncnc32)CC1O (stereo not given) | 23.5 µM (inactive) | 58.7 µM (inactive) | 23.3 µM (inactive) | 34.7 µM (inactive) | 25.1 µM (inactive) | 39.5 µM (inactive) | 21.4 µM (inactive) | 28 µM (inactive) | 18.7 µM (inactive) | 33.7 µM (inactive) | 22.1 µM (inactive) | 32.9 µM (inactive) | 40.9 µM (inactive) | 20.5 µM (inactive) | 51.1 µM | 19 µM (inactive) | 26.7 µM (inactive) | 19 µM (inactive) | 22.1 µM (inactive) | 29.7 µM (inactive) |
